The supplement of paper PMC10307832

How the values were obtained:
Tosedostat + Trametinib = compound: CC(C)C[C@@H](C(=O)N[C@H](C(=O)OC1CCCC1)c1ccccc1)[C@H](O)C(=O)NO [Tosedostat] + CC(=O)Nc1cccc(-n2c(=O)n(C3CC3)c(=O)c3c(Nc4ccc(I)cc4F)n(C)c(=O)c(C)c32)c1 [Trametinib] (partner 0.02 µM); assay: relative viability (nuclei count vs DMSO), 5 days (fraction); higher = more cells survive
Method in brief: (§1)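 Relative viability equals treated-well nuclei counts divided by vehicle-well nuclei counts. Counts came from 4× images of lung cancer cell lines grown in 1536-well plates for 5 days after pin-tool dosing on the day after seeding. Dosing used one drug alone or a fixed anchor-drug dose plus five library-drug doses (not always all listed) in √10 steps, and values are medians of duplicate plates.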

Tosedostat + AZD7762 = compound: CC(C)C[C@@H](C(=O)N[C@H](C(=O)OC1CCCC1)c1ccccc1)[C@H](O)C(=O)NO [Tosedostat] + NC(=O)Nc1cc(-c2cccc(F)c2)sc1C(=O)N[C@H]1CCCNC1 [AZD7762] (partner 0.2 µM); assay: as above
Method in brief: as §1

Cell Line	relative viability (Tosedostat + Trametinib; first compound 0.02 µM)	relative viability (Tosedostat + Trametinib; first compound 0.06325 µM)	relative viability (Tosedostat + Trametinib; first compound 0.2 µM)	relative viability (Tosedostat + Trametinib; first compound 0.6325 µM)	relative viability (Tosedostat + Trametinib; first compound 2 µM)	relative viability (Tosedostat + AZD7762; first compound 0.02 µM)	relative viability (Tosedostat + AZD7762; first compound 0.06325 µM)	relative viability (Tosedostat + AZD7762; first compound 0.2 µM)	relative viability (Tosedostat + AZD7762; first compound 0.6325 µM)	relative viability (Tosedostat + AZD7762; first compound 2 µM)
201T	0.673	0.743	0.732	0.745	0.781	0.592	0.668	0.669	0.584	0.576
A-427	0.789	0.748	0.818	0.719	0.701	0.787	0.804	0.773	0.682	0.698
ABC-1						1.2		0.755	0.822	0.732
BEN	1.17	1	1.09	1.21	1.38	0.813	0.724	0.901	1.12	1.04
CAL-12T	0.393	0.364	0.339	0.394	0.325	0.703	0.577	0.593	0.678	0.629
COR-L23	0.698	0.594	0.587	0.491	0.508					
COR-L 105	0.493	0.431	0.422	0.476	0.369					
ChaGo-K-1	0.903	0.862	0.895	0.867	0.645	0.957	0.889	0.81	0.767	0.603
EKVX	0.229	0.338	0.433	0.373	0.292	0.821	0.71	0.747	0.761	0.657
EMC-BAC-2	0.942	0.849	0.83	0.727	0.675	1.09	1.02	1.1	1.07	0.859
EPLC-272H	0.29	0.296	0.305	0.324	0.25	0.248	0.232	0.267	0.153	0.192
H3255	0.61	0.582	0.528	0.608	0.599	1.04	0.919	0.953	0.81	0.746
HARA	0.85	0.636	0.91	0.745	0.631	0.41	0.459	0.261	0.477	0.262
HCC-15	0.394	0.353	0.408	0.363	0.305	1.25	1.17	1.29	1.31	1.15
HCC-44	1.21	1.11	1.09	1.13	1.17	1.08	1	1.03	1.06	0.965
HCC-78	0.729	0.722	0.664	0.795	0.659	0.355	0.771	0.65	0.738	0.791
HCC-366	0.36	0.358	0.322	0.311	0.374	0.291	0.34	0.428	0.361	0.485
HCC-827	0.545	0.571	0.552	0.505	0.518	0.201	0.257	0.347	0.176	0.178
HOP-62	0.41	0.442	0.404	0.495	0.451	0.56	0.556	0.753	0.345	0.379

Cell Line	relative viability (Tosedostat + Trametinib; first compound 0.02 µM)	relative viability (Tosedostat + Trametinib; first compound 0.06325 µM)	relative viability (Tosedostat + Trametinib; first compound 0.2 µM)	relative viability (Tosedostat + Trametinib; first compound 0.6325 µM)	relative viability (Tosedostat + Trametinib; first compound 2 µM)	relative viability (Tosedostat + AZD7762; first compound 0.02 µM)	relative viability (Tosedostat + AZD7762; first compound 0.06325 µM)	relative viability (Tosedostat + AZD7762; first compound 0.2 µM)	relative viability (Tosedostat + AZD7762; first compound 0.6325 µM)	relative viability (Tosedostat + AZD7762; first compound 2 µM)
LC-2-ad	0.971	0.893	0.885	0.917	0.967	0.929	0.85	0.873	0.8	0.918
LCLC-97TM1	0.19	0.202	0.232	0.177	0.161	0.291	0.209	0.164	0.197	0.195
LCLC-103H	0.678	0.682	0.713	0.721	0.779	0.886	0.713	0.69	0.77	0.852
LK-2	0.903	0.819	0.614	0.628	0.78	0.459	0.475	0.381	0.354	0.617
LOU-NH91	0.787	0.803	0.824	0.766	0.777	0.805	0.862	0.802	0.745	0.624
LU99A	0.51	0.47	0.567	0.544	0.47	0.369	0.333	0.374	0.293	0.297
LXF-289	0.744	0.651	0.661	0.703	0.687	1.17	1.08	1.19	1.05	1.08
NCI-H23	0.426	0.329	0.359	0.321	0.284	0.31	0.248	0.232	0.202	0.253
NCI-H322M	0.548	0.501	0.452	0.456	0.467	0.648	0.56	0.641	0.613	0.567
NCI-H358	0.144	0.126	0.13	0.113	0.133	0.71	0.471	0.434	0.317	0.34
NCI-H441	0.478	0.579	0.499	0.562	0.461	1.39	1.09	1.13	0.85	0.718
NCI-H460	0.157	0.197	0.204	0.181	0.217	0.728	0.66	0.709	0.665	0.705
NCI-H520	0.731	0.733	0.645	0.699	0.67					
NCI-H522	0.716	0.796	0.752	0.895	0.78	0.901	0.907	0.953	0.827	0.738
NCI-H596	0.842	0.848	0.861	0.901	0.803	1.04	1.21	1.13	1.17	1.2
NCI-H647	0.452	0.485	0.425	0.622	0.515	0.664	0.454	0.368	0.366	0.398
NCI-H650	1.04	1.03	0.852	0.924	0.836	1.32	1.05	0.904	0.851	0.725
NCI-H661	0.688	0.596	0.579	0.613	0.637					
NCI-H727	0.398	0.37	0.413	0.412	0.376	0.667	0.559	0.65	0.669	0.53

Cell Line	relative viability (Tosedostat + Trametinib; first compound 0.02 µM)	relative viability (Tosedostat + Trametinib; first compound 0.06325 µM)	relative viability (Tosedostat + Trametinib; first compound 0.2 µM)	relative viability (Tosedostat + Trametinib; first compound 0.6325 µM)	relative viability (Tosedostat + Trametinib; first compound 2 µM)	relative viability (Tosedostat + AZD7762; first compound 0.02 µM)	relative viability (Tosedostat + AZD7762; first compound 0.06325 µM)	relative viability (Tosedostat + AZD7762; first compound 0.2 µM)	relative viability (Tosedostat + AZD7762; first compound 0.6325 µM)	relative viability (Tosedostat + AZD7762; first compound 2 µM)
NCI-H838	0.559	0.446	0.52	0.596	0.59	0.999	0.928	0.893	0.973	1
NCI-H1355	0.344	0.388	0.44	0.386	0.406	0.698	0.703	0.72	0.606	0.621
NCI-H1395	0.968	1.07	1.12	1.05	1.06	0.429	0.42	0.414	0.398	0.38
NCI-H1437	0.552	0.523	0.631	0.469	0.547	1.14	1.15	1.14	1.08	0.904
NCI-H1648	0.417	0.447	0.476	0.477	0.336	0.678	0.735	0.768	0.538	0.509
NCI-H1650	0.79	0.627	0.552	0.533	0.479					
NCI-H1651	0.777	0.789	0.897	0.869	0.742	0.458	0.486	0.588	0.439	0.384
NCI-H1666	0.962	0.856	0.929	0.91	0.851	0.878	0.919	1.02	0.912	0.907
NCI-H1703						0.122	0.133	0.138	0.122	0.0985
NCI-H1734	0.778	0.666	0.664	0.502	0.572	0.614	0.535	0.504	0.411	0.466
NCI-H1755	0.782	0.837	0.813	0.869	0.744	0.43	0.462	0.398	0.407	0.347
NCI-H1792	0.4	0.417	0.4	0.42	0.479	0.523	0.77	0.606	0.644	0.586
NCI-H1793	0.507	0.49	0.445	0.437	0.448	0.458	0.584	0.546	0.231	0.338
NCI-H2009	0.248	0.325	0.321	0.293	0.276					
NCI-H2023	0.607	0.496	0.465	0.45	0.502					
NCI-H2228	0.666	0.57	0.466	0.534	0.421					
SK-LU-1	0.648	0.529	0.597	0.447	0.511					
SK-MES-1	0.556	0.536	0.625	0.776	0.782					
SW 1573	0.59	0.537	0.553	0.472	0.505					
